Values of other authors as cited in patent publication US20100137844A1, “Delivery devices for modulating inflammation” (Searete LLC, a limited liability corporation of the State …, priority 2008, published 2010).

Key:
[1] = 400 mg infused over one hour, single agent
Fyn = Fyn (Homo sapiens, UniProt P06241); conditions: at nanomolar concentrations
[2] = system: proteasomal activity in cultured breast cancer cells; conditions: via copper binding

Chain of Fyn (P06241 whole entry): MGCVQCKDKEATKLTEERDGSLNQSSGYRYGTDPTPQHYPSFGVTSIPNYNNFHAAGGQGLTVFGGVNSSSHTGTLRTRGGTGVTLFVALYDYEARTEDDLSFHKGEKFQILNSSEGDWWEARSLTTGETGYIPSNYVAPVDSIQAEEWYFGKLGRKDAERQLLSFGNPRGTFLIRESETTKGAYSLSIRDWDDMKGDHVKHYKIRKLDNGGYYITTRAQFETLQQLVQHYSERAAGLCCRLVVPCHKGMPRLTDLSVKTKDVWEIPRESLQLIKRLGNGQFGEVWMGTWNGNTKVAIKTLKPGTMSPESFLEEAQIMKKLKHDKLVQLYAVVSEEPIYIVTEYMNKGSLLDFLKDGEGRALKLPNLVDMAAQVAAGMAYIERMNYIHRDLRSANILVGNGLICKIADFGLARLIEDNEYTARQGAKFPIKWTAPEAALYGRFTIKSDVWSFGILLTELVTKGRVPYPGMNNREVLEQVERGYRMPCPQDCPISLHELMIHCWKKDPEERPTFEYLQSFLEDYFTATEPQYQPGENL

Cl.Cl.Nc1ccccc1Oc1ccc2c(N)nsc2c1 [Example M62812, 3-amino-6-(2-aminophenoxy)-1,2-benzisothiazole dihydrochloride]
prevention of lethal septic shock (mice): prevents lethal septic shock in mice

CCN(CC)CCCC(C)Nc1ccnc2cc(Cl)ccc12.O=P(O)(O)O.O=P(O)(O)O (centres unmarked) [chloroquine phosphate, 7-chloro-4-[[4-(diethylamino)-1-methylbutyl]amino]quinoline phosphate (1:2)]
tolerability of intravenous infusion [1]: without complication

Cc1nc(Nc2ncc(C(=O)Nc3c(C)cccc3Cl)s2)cc(N2CCN(CCO)CC2)n1.O [dasatinib, N-(2-chloro-6-methylphenyl)-2-[[6-[4-(2-hydroxyethyl)-1-piperazinyl]-2-methyl-4-pyrimidinyl]amino]-5-thiazolecarboxamide, monohydrate]
inhibition of Fyn (Fyn): inhibits

CCN(CC)C(=S)SSC(=S)N(CC)CC [disulfiram, 1-(diethylthiocarbamoyldisulfanyl)-N,N-diethyl-methanethioamide]
proteasomal activity [2]: inhibits proteasomal activity | inhibition of aldehyde dehydrogenase (aldehyde dehydrogenase): inhibits aldehyde dehydrogenase without toxicity
